pIC50: −log10 of the molar value. Where a SMILES comes first, the peptide text is derived from it. Bridges are numbered along the chain shown (N, C = ends). [ ]: non-standard residue; d: D form. The star is where a group is joined. Phe(4-COOH) = N[C@@H](Cc1ccc(C(=O)O)cc1)C(=O)O; Bip = N[C@@H](Cc1ccc(-c2ccccc2)cc1)C(=O)O; Cit = NC(=O)NCCC[C@H](N)C(=O)O; Carboxymethyl = O=C(O)C*; Orn = NCCC[C@H](N)C(=O)O; Dab = NCC[C@H](N)C(=O)O; Dap = NC[C@H](N)C(=O)O
The compounds below were run against T1, human PD-1 / PD-L1-Ig binding on Jurkat cell line over-expressing human PD-1 (Jurkat-PD-1) (Homo sapiens, UniProt Q15116) (assay: Jurkat-PD-1 Cell Binding High-Content Screening Assay (CBA)). Settings: Jurkat-PD-1 cells, PE-labeled PD-L1-Ig 20 nM final; read-out: Jurkat HPD1_PDL1 IC50.
T1 construct: expressed in transfected cells; host or cells: Jurkat
Assay type: cell-based
In short: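 PE-PD-L1-Ig 20 nM final; cells in DMEM/10% FCS; cpd pre-incubation 2 h, 37° C; ligand 1 h; PFA fix + Hoechst 33342; high-content imaging read-out.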

T1 sequence (Q15116 25-288): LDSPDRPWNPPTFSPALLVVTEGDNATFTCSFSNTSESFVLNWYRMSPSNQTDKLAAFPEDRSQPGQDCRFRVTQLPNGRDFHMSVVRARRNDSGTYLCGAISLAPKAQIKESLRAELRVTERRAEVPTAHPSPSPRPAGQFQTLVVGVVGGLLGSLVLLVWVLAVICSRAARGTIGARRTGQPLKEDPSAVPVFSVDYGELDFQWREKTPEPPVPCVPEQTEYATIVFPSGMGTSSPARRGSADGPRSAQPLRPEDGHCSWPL

Q: How did the pIC50 turn out when `CC(C)C[C@H]1NC(=O)[C@H](CCCN)NC(=O)[C@H](C(C)C)NC(=O)[C@H](Cc2ccc(-c3ccccc3)cc2)NC(=O)[C@H](C(C)C)NC(=O)[C@H](Cc2c[nH]c3ccccc23)NC(=O)[C@H](CC(=O)O)NC(=O)[C@H](Cc2ccc(C(=O)O)cc2)NC(=O)[C@H](Cc2ccc(OCC(=O)O)cc2)NC(=O)CSC[C@@H](C(=O)N[C@@H](C)C(N)=O)NC(=O)[C@H]([C@@H](C)O)NC(=O)[C@H](C(C)C)NC(=O)[C@H](Cc2ccc(O)cc2)NC(=O)[C@H](CCN)NC1=O` [Compound 1682] ({CH2CO}-Y(Carboxymethyl)[Phe(4-COOH)]DWV[Bip]V[Orn][dL][Dab]YVTCA-NH2; thioether N-14) was run?
A: Its pIC50 is 7.18.

Q: How did the pIC50 turn out when `CC(C)C[C@H]1NC(=O)[C@H](CCCN)NC(=O)[C@H](C(C)C)NC(=O)[C@H](Cc2ccc(-c3ccccc3)cc2)NC(=O)[C@H](C(C)C)NC(=O)[C@H](Cc2c[nH]c3ccccc23)NC(=O)[C@H](CC(=O)O)NC(=O)[C@H](Cc2ccc(OCC(=O)O)cc2)NC(=O)[C@H](Cc2ccc(OCC(=O)O)cc2)NC(=O)CSC[C@@H](C(=O)N[C@@H](C)C(N)=O)NC(=O)[C@H]([C@@H](C)O)NC(=O)[C@H](C(C)C)NC(=O)[C@H](Cc2ccc(O)cc2)NC(=O)[C@H](CCN)NC1=O` [Compound 1683] ({CH2CO}-Y(Carboxymethyl)Y(Carboxymethyl)DWV[Bip]V[Orn][dL][Dab]YVTCA-NH2; thioether N-14) was run?
A: The pIC50 was 6.98.

Q: How did the pIC50 turn out when `CC(C)C[C@H]1NC(=O)[C@H](CCCN)NC(=O)[C@H](CCCNC(N)=O)NC(=O)[C@H](Cc2ccc(-c3ccccc3)cc2)NC(=O)[C@H](C(C)C)NC(=O)[C@H](Cc2c[nH]c3ccccc23)NC(=O)[C@H](CC(=O)O)NC(=O)[C@H](Cc2ccc(C(=O)O)cc2)NC(=O)[C@H](Cc2ccc(OCC(=O)O)cc2)NC(=O)CSC[C@@H](C(=O)N[C@@H](C)C(N)=O)NC(=O)[C@H]([C@@H](C)O)NC(=O)[C@H](C(C)C)NC(=O)[C@H](Cc2ccc(O)cc2)NC(=O)[C@H](CCN)NC1=O` [Compound 1684] ({CH2CO}-Y(Carboxymethyl)[Phe(4-COOH)]DWV[Bip][Cit][Orn][dL][Dab]YVTCA-NH2; thioether N-14) was run?
A: The pIC50 was 6.92.

Q: How did the pIC50 turn out when `CC(C)C[C@H]1NC(=O)[C@H](CCCN)NC(=O)[C@H](CCCNC(N)=O)NC(=O)[C@H](Cc2ccc(-c3ccccc3)cc2)NC(=O)[C@H](C(C)C)NC(=O)[C@H](Cc2c[nH]c3ccccc23)NC(=O)[C@H](CC(=O)O)NC(=O)[C@H](Cc2ccc(OCC(=O)O)cc2)NC(=O)[C@H](Cc2ccc(OCC(=O)O)cc2)NC(=O)CSC[C@@H](C(=O)N[C@@H](C)C(N)=O)NC(=O)[C@H]([C@@H](C)O)NC(=O)[C@H](C(C)C)NC(=O)[C@H](Cc2ccc(O)cc2)NC(=O)[C@H](CCN)NC1=O` [Compound 1685] ({CH2CO}-Y(Carboxymethyl)Y(Carboxymethyl)DWV[Bip][Cit][Orn][dL][Dab]YVTCA-NH2; thioether N-14) was run?
A: Its pIC50 is 6.76.

Q: With `CC(C)C[C@H]1NC(=O)[C@H](CCCN)NC(=O)[C@H](CCC(=O)O)NC(=O)[C@H](Cc2ccc(-c3ccccc3)cc2)NC(=O)[C@H](C(C)C)NC(=O)[C@H](Cc2c[nH]c3ccccc23)NC(=O)[C@H](CC(=O)O)NC(=O)[C@H](Cc2ccc(OCC(=O)O)cc2)NC(=O)[C@H](CN)NC(=O)CSC[C@@H](C(=O)N[C@@H](C)C(N)=O)NC(=O)[C@H]([C@@H](C)O)NC(=O)[C@H](C(C)C)NC(=O)[C@H](Cc2ccc(O)cc2)NC(=O)[C@H](CCN)NC1=O` [Compound 1686] ({CH2CO}-[Dap]Y(Carboxymethyl)DWV[Bip]E[Orn][dL][Dab]YVTCA-NH2; thioether N-14) as the compound, how does the pIC50 read?
A: Its pIC50 is 6.67.

Q: `CC(C)C[C@H]1NC(=O)[C@H](CCCN)NC(=O)[C@H](CCC(=O)O)NC(=O)[C@H](Cc2ccc(-c3ccccc3)cc2)NC(=O)[C@H](C(C)C)NC(=O)[C@H](Cc2c[nH]c3ccccc23)NC(=O)[C@H](CC(=O)O)NC(=O)[C@H](Cc2ccc(C(=O)O)cc2)NC(=O)[C@H](Cc2ccc(OCC(=O)O)cc2)NC(=O)CSC[C@@H](C(=O)N[C@@H](C)C(N)=O)NC(=O)[C@H]([C@@H](C)O)NC(=O)[C@H](C(C)C)NC(=O)[C@H](Cc2ccc(O)cc2)NC(=O)[C@H](CCN)NC1=O` [Compound 1687] ({CH2CO}-Y(Carboxymethyl)[Phe(4-COOH)]DWV[Bip]E[Orn][dL][Dab]YVTCA-NH2; thioether N-14) was tested. Which pIC50 did it give?
A: Its pIC50 is 6.43.
